Test results from patent publication EP0326331B1, “Substituted quinolines and cinnolines” (Dow AgroSciences LLC, priority 1988, dated 1989).

Columns and labels:
Assay type in all cases: in vivo
[1] = tested on: Venturia inaequalis (apple scab); experiment: Test 1 greenhouse foliar spray screen, apple scab on apple seedling; settings: disease control rating, foliar spray on apple seedling, 400 ppm (+++ at 100 ppm)
[2] = tested on: Botrytis cinerea (gray mold); experiment: Test 1 greenhouse foliar spray screen, gray mold on grape berries; settings: disease control rating, spray on grape berries, 400 ppm (+++ at 100 ppm)
[3] = tested on: Pseudoperonospora cubensis (downy mildew); experiment: Test 1 greenhouse foliar spray screen, downy mildew on squash; settings: disease control rating, foliar spray on squash, 400 ppm (+++ at 100 ppm)
[4] = tested on: Pyricularia oryzae (rice blast); experiment: whole plant or invertebrate; settings: disease control rating, foliar spray on rice, 400 ppm (+++ at 100 ppm)
[5] = tested on: melon aphids (Aphis gossypii Glover); experiment: Mite/insect screen, MA; settings: Aphis gossypii, foliar, percent mortality, foliar spray on squash, read-out: MA RESULTS %; for mortality at 200 ppm: rate 200 ppm; for mortality at 400 ppm: rate 400 ppm
Procedure, shortened: (§1)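 Foliar spray to runoff (10 psi), 1 h drying; aqueous dilutions from acetone/alcohol emulsifier stock. Mortality (%) after standard exposure.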

[6] = tested on: Puccinia recondita tritici (leaf rust); experiment: Test 1 greenhouse foliar spray screen, leaf rust on wheat; settings: disease control rating, foliar spray on wheat, 400 ppm (+++ at 100 ppm)
[7] = tested on: Cercospora beticola (leaf spot); experiment: Test 1 greenhouse foliar spray screen, leaf spot on sugar beet; settings: disease control rating, foliar spray on sugar beet, 400 ppm (+++ at 100 ppm)
[8] = tested on: corn rootworm; experiment: Mite/insect screen, CRW; settings: percent mortality, read-out: CRW RESULTS %; for mortality at 12 ppm: CRW rate 12.00 ppm; for mortality at 24 ppm: CRW rate 24.00 ppm
Procedure, shortened: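 Following dissolution in equal parts acetone and alcohol with 23 g/L and 13 g/L emulsifier blends and dilution with water, test solutions were scored for percent mortality at the end of standard exposures.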

[9] = tested on: Erysiphe graminis tritici (powdery mildew); experiment: Test 1 greenhouse foliar spray screen, powdery mildew on wheat; settings: disease control rating, foliar spray on wheat, 400 ppm (+++ at 100 ppm)
[10] = tested on: Septoria tritici (leaf blotch); experiment: Test 1 greenhouse foliar spray screen, leaf blotch on wheat; settings: disease control rating, foliar spray on wheat, 400 ppm (+++ at 100 ppm)
[11] = tested on: Twospotted spider mites (Tetranychus urticae Koch); experiment: Mite/insect screen, SM; settings: Tetranychus urticae, foliar, percent mortality, foliar spray on squash, read-out: SM RESULTS %; for mortality at 200 ppm: rate 200 ppm; for mortality at 400 ppm: rate 400 ppm
Procedure, shortened: as §1

[12] = tested on: southern armyworm (Spodopetra eridania Cramer); experiment: Mite/insect screen, SAW; settings: Spodoptera eridania, foliar, percent mortality, foliar spray on squash, read-out: SAW RESULTS %; for mortality at 200 ppm: rate 200 ppm; for mortality at 400 ppm: rate 400 ppm
Procedure, shortened: as §1

| Structure (SMILES) | APPL SCAB [1] | GRAY MOLD [2] | DOWN MDEW [3] | RICE BLAST [4] | mortality at 200 ppm [5] [%] | LEAF RUST [6] | LEAF SPOT [7] | mortality at 12 ppm [8] [%] | POWD MDEW [9] | LEAF BLOT [10] | mortality at 200 ppm [11] [%] | mortality at 200 ppm [12] [%] | mortality at 400 ppm [5] [%] | mortality at 24 ppm [8] [%] | mortality at 400 ppm [11] [%] | mortality at 400 ppm [12] [%] |
| --- | --- | --- | --- | --- | --- | --- | --- | --- | --- | --- | --- | --- | --- | --- | --- | --- |
| Clc1cccc2c(NCCc3cccs3)ccnc12 [Example 172, 8-chloro-N-[2-(2-thienyl)ethyl]-4-quinolinamine] | - (0-19% control at 400 ppm) | - (0-19% control at 400 ppm) | + (20-89% control at 400 ppm) | + (20-89% control at 400 ppm) | 0 | + (20-89% control at 400 ppm) | - (0-19% control at 400 ppm) | 0 | + (20-89% control at 400 ppm) | - (0-19% control at 400 ppm) | 0 | 0 |  |  |  |  |
| Fc1cccc2c(NCCC3COc4ccccc4O3)ccnc12 (stereo not shown) [Example 174, N-[2-(2,3-dihydro-1,4-benzodioxin-2-yl)ethyl]-8-fluoro-4-quinolinamine] | - (0-19% control at 400 ppm) | - (0-19% control at 400 ppm) | +++ (90-100% control at 100 ppm) | + (20-89% control at 400 ppm) | 0 | ++ (90-100% control at 400 ppm) | - (0-19% control at 400 ppm) | 0 | + (20-89% control at 400 ppm) | + (20-89% control at 400 ppm) | 0 | 0 |  |  |  |  |
| Fc1cccc2c(NCCc3ccsc3)ccnc12 [Example 175, 8-fluoro-N-[2-(3-thienyl)ethyl]-4-quinolinamine] | - (0-19% control at 400 ppm) | - (0-19% control at 400 ppm) | +++ (90-100% control at 100 ppm) | + (20-89% control at 400 ppm) | 0 | +++ (90-100% control at 100 ppm) | - (0-19% control at 400 ppm) | 0 | + (20-89% control at 400 ppm) | + (20-89% control at 400 ppm) | 0 | 0 |  |  |  |  |
| Fc1cccc2c(NCCc3c[nH]c4ccccc34)ccnc12 [Example 176, 8-fluoro-N-[2-(1H-indol-3-yl)ethyl]-4-quinolinamine] | - (0-19% control at 400 ppm) | - (0-19% control at 400 ppm) | ++ (90-100% control at 400 ppm) | + (20-89% control at 400 ppm) | 0 | + (20-89% control at 400 ppm) | + (20-89% control at 400 ppm) | 0 | + (20-89% control at 400 ppm) | - (0-19% control at 400 ppm) | 0 | 0 |  |  |  |  |
| CC(=O)N(CCC1=CCCCC1)c1ccnc2c(C)cc(C)cc12 [Example 179, N-[2-(1-cyclohexenyl)ethyl]-N-(6,8-dimethyl-4-quinolinyl)acetamide] | + (20-89% control at 400 ppm) | - (0-19% control at 400 ppm) | ++ (90-100% control at 400 ppm) | - (0-19% control at 400 ppm) | 0 | - (0-19% control at 400 ppm) | + (20-89% control at 400 ppm) | 0 | - (0-19% control at 400 ppm) | - (0-19% control at 400 ppm) | 0 | 0 | 0 | 0 | 0 | 0 |
| Fc1cccc2c(NCCc3ccccn3)ccnc12 [Example 180, 8-fluoro-N-[2-(2-pyridinyl)ethyl]-4-quinolinamine] | - (0-19% control at 400 ppm) | - (0-19% control at 400 ppm) | ++ (90-100% control at 400 ppm) | + (20-89% control at 400 ppm) | 0 | - (0-19% control at 400 ppm) | + (20-89% control at 400 ppm) | 0 | ++ (90-100% control at 400 ppm) | + (20-89% control at 400 ppm) | 0 | 0 | 0 | 0 | 0 | 0 |
| Fc1cccc2c(NCCc3ccccc3)cc(NCCc3ccccc3)nc12 [Example 183, 8-fluoro-N,N'-bis(2-phenylethyl)-2,4-quinolinediamine] | + (20-89% control at 400 ppm) | - (0-19% control at 400 ppm) | +++ (90-100% control at 100 ppm) | ++ (90-100% control at 400 ppm) | 0 | ++ (90-100% control at 400 ppm) | + (20-89% control at 400 ppm) | 0 | - (0-19% control at 400 ppm) | - (0-19% control at 400 ppm) | 0 | 0 |  |  |  |  |
| CC(CNc1cc(NCC(C)c2ccccc2)c2ccccc2n1)c1ccccc1 (stereo not shown) [Example 184, N,N'-bis(2-phenylpropyl)-2,4-quinolinediamine] | - (0-19% control at 400 ppm) | - (0-19% control at 400 ppm) | ++ (90-100% control at 400 ppm) | + (20-89% control at 400 ppm) | 0 | ++ (90-100% control at 400 ppm) | - (0-19% control at 400 ppm) | 0 | - (0-19% control at 400 ppm) | - (0-19% control at 400 ppm) | 0 | 0 |  |  |  |  |
| Clc1ccc(CCNc2ccc3c(NCCc4ccc(Cl)cc4)ccnc3c2)cc1 [Example 186, N,N'-bis[2-(4-chlorophenyl)ethyl]-4,7-quinolinediamine] | - (0-19% control at 400 ppm) | - (0-19% control at 400 ppm) | +++ (90-100% control at 100 ppm) | - (0-19% control at 400 ppm) | 0 | + (20-89% control at 400 ppm) | + (20-89% control at 400 ppm) | 0 | - (0-19% control at 400 ppm) | + (20-89% control at 400 ppm) | 0 | 0 | 0 | 0 | 0 | 0 |
| COc1ccc(CCNc2ccc3c(NCCc4ccc(OC)cc4)ccnc3c2)cc1 [Example 187, N,N'-bis[2-(4-methoxyphenyl)ethyl]-4,7-quinolinediamine] | - (0-19% control at 400 ppm) | - (0-19% control at 400 ppm) | +++ (90-100% control at 100 ppm) | + (20-89% control at 400 ppm) | 0 | + (20-89% control at 400 ppm) | - (0-19% control at 400 ppm) | 0 | - (0-19% control at 400 ppm) | - (0-19% control at 400 ppm) | 0 | 0 | 0 | 0 | 0 | 0 |
